# Assay results reported in ChEMBL document CHEMBL1201862, “PubChem BioAssay data set” (2004).
# The source made the active and inactive calls.
# Columns and labels:
# [1] = target: T1, Alkaline phosphatase, tissue-nonspecific isozyme (Homo sapiens, UniProt P05186)
# T1 sequence (P05186 whole entry): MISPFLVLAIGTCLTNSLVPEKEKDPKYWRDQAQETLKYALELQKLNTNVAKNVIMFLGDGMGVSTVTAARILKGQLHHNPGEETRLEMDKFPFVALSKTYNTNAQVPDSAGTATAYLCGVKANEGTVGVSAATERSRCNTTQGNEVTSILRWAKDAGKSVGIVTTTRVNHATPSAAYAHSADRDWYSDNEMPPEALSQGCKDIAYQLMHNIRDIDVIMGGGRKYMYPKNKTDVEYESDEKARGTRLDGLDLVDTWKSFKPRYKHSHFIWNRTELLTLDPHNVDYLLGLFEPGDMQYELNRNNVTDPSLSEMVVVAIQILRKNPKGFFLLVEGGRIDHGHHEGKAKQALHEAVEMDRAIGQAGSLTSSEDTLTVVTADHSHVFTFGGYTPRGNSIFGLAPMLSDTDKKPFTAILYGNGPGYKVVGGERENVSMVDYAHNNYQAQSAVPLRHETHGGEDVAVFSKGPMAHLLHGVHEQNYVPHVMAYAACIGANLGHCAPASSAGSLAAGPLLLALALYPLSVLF
# [2] = Vero cell cytotoxicity, dose response, cytotoxicity control for Vif-APOBEC3G degradation inhibitor project, Vero cells (AID 1117358); assay type: functional; conditions: Human immunodeficiency virus 1, Vero
# [3] = cytotoxicity in HEK-293T cells, dose response, cytotoxicity control for BCR NF-kB inhibitor project, luminescence, B-cell screen hits (AID 489021); assay type: functional, cell-based;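 also: HEK-293T cells carrying an NF-kB luciferase reporter; cells exposed to compound for about 14 hours before viability readout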
# Estrogen receptor beta [4] = target: T2, Estrogen receptor beta (Homo sapiens, UniProt Q92731); assay: ERβ–SRC-3 coactivator interaction inhibitors, confirmation, orthogonal assay, biochemical, ELISA, streptavidin-HRP readout (AID 1060)
# Estrogen receptor beta [5] = target: T2, Estrogen receptor beta
# cells = conditions: HEK293
# [6] = Jurkat T cell cytotoxicity, dose response, cytotoxicity control for P. falciparum gametocyte viability project, luminescence (AID 1117277); assay type: functional, cell-based;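 also: potency reflects loss of cellular ATP meaning fewer viable cells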
# [7] = P. falciparum late gametocyte killing, dose response, luminescence (AID 1117278); assay type: functional, cell-based;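 also: gametocytes exposed to compound for 24 hours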
# [8] = target: T3, Oxysterols receptor LXR-beta (Homo sapiens, UniProt P55055); assay: LXR agonists, Gal4 luciferase reporter, dose response, counter-screen for ssDAF-12 agonist project, cell-based, luminescence, HEK293, S. stercoralis campaign (AID 720737); assay type: functional; conditions: read-out: IC50 (the source's name)
# T3 sequence (P55055 whole entry): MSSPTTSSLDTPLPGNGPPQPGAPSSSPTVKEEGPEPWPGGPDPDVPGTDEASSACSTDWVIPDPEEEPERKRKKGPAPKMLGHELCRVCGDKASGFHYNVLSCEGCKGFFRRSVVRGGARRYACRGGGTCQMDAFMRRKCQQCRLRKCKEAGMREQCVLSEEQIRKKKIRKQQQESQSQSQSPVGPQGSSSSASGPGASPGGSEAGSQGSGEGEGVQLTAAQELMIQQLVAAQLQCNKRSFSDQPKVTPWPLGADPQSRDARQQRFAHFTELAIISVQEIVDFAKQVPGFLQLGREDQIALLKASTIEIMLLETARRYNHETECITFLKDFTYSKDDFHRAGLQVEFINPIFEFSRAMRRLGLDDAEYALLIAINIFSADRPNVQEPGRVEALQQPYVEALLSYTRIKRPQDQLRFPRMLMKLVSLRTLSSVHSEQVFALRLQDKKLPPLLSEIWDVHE
# [9] = Luminescence-based cell-based high throughput dose response assay to identify activators of the DAF-12 from the parasite S. stercoralis (ssDAF-12).; assay type: functional
# Kallikrein-7 = Kallikrein-7 (Homo sapiens, UniProt P49862); assay: Fluorescence Intensity-based biochemical primary high throughput dose response assay to identify activators of kallikrein-7 (K7) zymogen.
# [10] = HeLa 4N DNA content increase, dose response, cell-based, IC50 (AID 1117351); assay type: functional
# [11] = HeLa 2N DNA content increase, dose response, cell-based, IC50 (AID 1117349); assay type: functional
# [12] = A2780 ovarian cancer cell cytotoxicity, dose response, cytotoxicity control, plate reader, dry powder samples (AID 743046); assay type: functional, cell-based
# Paired box protein Pax-8 = Paired box protein Pax-8 (Homo sapiens, UniProt Q06710); assay: inhibitors of PAX8-driven TPO luciferase reporter, dose response, RMG-I cells, cherry-pick (AID 687027); assay type: functional, cell-based;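 also: luciferase reporter driven by Pax8 target thyroperoxidase promoter measured by SteadyGlo luminescence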
# [13] = non-specific cell cytotoxicity, dose response, cytotoxicity control for PAX8 inhibitor project, plate reader, dry powder samples (AID 743021); assay type: functional, cell-based
# [14] = NIH:OVCAR-3 ovarian cancer cell cytotoxicity, dose response, PAX8 inhibitor project, plate reader, dry powder samples (AID 743044); assay type: functional, cell-based
# [15] = Luminescence Cell-Based Dose Confirmation HTS to Identify Inhibitors of Polyadenylation.; assay type: functional
# [16] = target: Heat shock protein HSP 90-alpha (Homo sapiens, UniProt P07900); assay type: functional, organism-based
# [17] = target: Neurotensin receptor type 1 (Homo sapiens, UniProt P30989); assay type: functional;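 also: Image-based confirmatory dose-response assay measuring agonist activity at NTR1; NTR1-expressing U2OS osteosarcoma cells imaged for beta-arrestin GFP spot formation; agonist potency where compounds increase beta-arrestin recruitment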
# [18] = cytotoxicity in HMLE control line with eGFP shRNA, dose response, counter-screen for HMLE_sh_ECad selective toxicity project, cell-based, HMLE_sh_eGFP, luminescence (AID 463074); assay type: functional, Homo sapiens;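 also: HMLE human mammary epithelial cells expressing control shRNA against eGFP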
# [19] = Luminescence Cell-Based Dose Retest to Confirm Inhibitors of Cancer Stem Cells. [Related pubchem assays (depositor defined):AID2717, AID2721]; assay type: functional; conditions: Homo sapiens
# INS1 = assay: beta cell apoptosis inhibitors, cytokine rescue, dose response, luminescence, retest (AID 449756); assay type: functional, cell-based; conditions: Rattus norvegicus;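 also: cell death triggered by IL-1 beta plus TNF-alpha plus IFN-gamma mixture; protective hits raise ATP signal compared with cytokine alone wells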
# [20] = target: T4, Mannose-6-phosphate isomerase (Homo sapiens, UniProt P34949); assay: inhibitors of human PMI, primary screen, biochemical, fluorescence intensity, coupled assay (AID 1209)
# T4 sequence (P34949 whole entry): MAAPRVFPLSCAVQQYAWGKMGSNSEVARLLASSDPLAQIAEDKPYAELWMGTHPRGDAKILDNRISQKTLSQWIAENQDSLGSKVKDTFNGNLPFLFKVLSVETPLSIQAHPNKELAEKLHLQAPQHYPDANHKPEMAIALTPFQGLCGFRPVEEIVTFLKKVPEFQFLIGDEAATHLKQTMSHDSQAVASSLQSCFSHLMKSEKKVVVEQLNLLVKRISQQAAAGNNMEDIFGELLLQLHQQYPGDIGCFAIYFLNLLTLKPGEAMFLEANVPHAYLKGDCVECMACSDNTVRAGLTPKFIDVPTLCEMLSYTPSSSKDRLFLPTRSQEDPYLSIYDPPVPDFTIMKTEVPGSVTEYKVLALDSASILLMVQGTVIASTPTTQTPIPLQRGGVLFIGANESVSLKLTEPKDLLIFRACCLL
# Protein Tat = Protein Tat (Human immunodeficiency virus type 1 group M subtype B (isolate HXB2)(HIV-1), UniProt P04608); assay type: functional;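 also: tat binding to TAR RNA read out by fluorescence polarization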
# [21] = target: DNA dC->dU-editing enzyme APOBEC-3A (Homo sapiens, UniProt P31941); assay: Dose Response confirmation of small molecule APOBEC3A DNA Deaminase Inhibitors via a fluorescence-based single-stranded DNA deaminase assay. [Related pubchem assays (depositor defined):AID493011, AID493024]; assay type: functional
# [22] = target: DNA dC->dU-editing enzyme APOBEC-3G (Homo sapiens, UniProt Q9HC16); assay type: functional;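 also: Dose-response counterscreen measuring inhibition of APOBEC3G DNA deaminase activity, run while confirming APOBEC3A inhibitors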
# [23] = inhibitors of Vif binding to APOBEC3G peptide, primary screen, biochemical, TR-FRET, GST-Vif 1-94, biotin-A3G peptide, dose response retest (AID 1117319); assay type: functional;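 also: TR-FRET signal of purified GST-Vif binding a biotinylated A3G peptide; inhibitors lower the FRET signal by blocking Vif and A3G binding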
# [24] = target: E3 ubiquitin-protein ligase Mdm2 (Homo sapiens, UniProt Q00987); assay: enhancers of MDM2-luciferase reporter signal, concentration-effect titration, project on inhibitors of MDM2 ubiquitin ligase, cellular assay, luminescent readout, 384-well plate format (AID 1394); assay type: functional;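 also: MDM2 E3 inhibitors raise luminescence so EC50 is for signal enhancement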
# [25] = target: Polyadenylate-binding protein 1 (Homo sapiens, UniProt P11940); assay: PABP poly(A) RNA binding inhibitors, primary screen, biochemical, fluorescence polarization, uHTS (AID 2014)
# [26] = target: Eukaryotic translation initiation factor 4H (Homo sapiens, UniProt Q15056); assay: human eIF4H binding inhibitors, primary screen, translation initiation inhibitor project, biochemical, uHTS, fluorescence polarization (AID 2012)
# [27] = target: T4, Mannose-6-phosphate isomerase; assay: human PMI inhibitors, high substrate, primary screen, biochemical, fluorescence intensity, high mannose 6-phosphate (AID 1220)
# [28] = target: Lysosomal acid glucosylceramidase (Homo sapiens, UniProt P04062); assay: Dose response cell-based high throughput screening assay to identify enhancers of beta-glucosidase activity. [Related pubchem assays: 784 ]; assay type: functional
# Chain of Lysosomal acid glucosylceramidase (P04062 whole entry): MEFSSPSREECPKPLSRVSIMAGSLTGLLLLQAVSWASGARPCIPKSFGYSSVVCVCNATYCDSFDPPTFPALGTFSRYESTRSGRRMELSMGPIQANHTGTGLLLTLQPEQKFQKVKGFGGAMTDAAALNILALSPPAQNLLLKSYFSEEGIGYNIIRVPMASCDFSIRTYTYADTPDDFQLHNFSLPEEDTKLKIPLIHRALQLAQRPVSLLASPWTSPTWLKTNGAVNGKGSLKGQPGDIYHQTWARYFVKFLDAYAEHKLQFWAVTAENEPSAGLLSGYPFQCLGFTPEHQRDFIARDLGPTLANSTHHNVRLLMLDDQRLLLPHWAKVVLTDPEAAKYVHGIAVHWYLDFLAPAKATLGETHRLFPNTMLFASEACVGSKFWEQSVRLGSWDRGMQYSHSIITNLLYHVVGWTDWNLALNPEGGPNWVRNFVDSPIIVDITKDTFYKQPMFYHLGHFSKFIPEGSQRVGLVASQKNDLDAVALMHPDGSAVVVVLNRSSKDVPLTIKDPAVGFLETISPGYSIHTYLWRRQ
# T2 sequence (Q92731 whole entry): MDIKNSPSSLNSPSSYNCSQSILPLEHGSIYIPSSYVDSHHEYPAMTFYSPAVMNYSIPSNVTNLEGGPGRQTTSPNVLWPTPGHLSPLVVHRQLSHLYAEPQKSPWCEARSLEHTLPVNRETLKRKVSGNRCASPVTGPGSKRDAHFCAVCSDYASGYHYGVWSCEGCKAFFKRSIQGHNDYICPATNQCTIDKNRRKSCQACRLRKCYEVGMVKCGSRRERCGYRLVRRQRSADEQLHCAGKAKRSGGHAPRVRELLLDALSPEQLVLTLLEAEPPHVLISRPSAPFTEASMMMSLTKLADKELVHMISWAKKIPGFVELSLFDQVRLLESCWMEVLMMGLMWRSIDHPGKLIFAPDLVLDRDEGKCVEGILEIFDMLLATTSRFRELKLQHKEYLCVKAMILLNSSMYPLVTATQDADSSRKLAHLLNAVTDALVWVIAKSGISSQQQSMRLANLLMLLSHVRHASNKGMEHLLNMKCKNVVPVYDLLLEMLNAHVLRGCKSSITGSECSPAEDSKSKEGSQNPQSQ
# Chain of Neurotensin receptor type 1 (P30989 whole entry): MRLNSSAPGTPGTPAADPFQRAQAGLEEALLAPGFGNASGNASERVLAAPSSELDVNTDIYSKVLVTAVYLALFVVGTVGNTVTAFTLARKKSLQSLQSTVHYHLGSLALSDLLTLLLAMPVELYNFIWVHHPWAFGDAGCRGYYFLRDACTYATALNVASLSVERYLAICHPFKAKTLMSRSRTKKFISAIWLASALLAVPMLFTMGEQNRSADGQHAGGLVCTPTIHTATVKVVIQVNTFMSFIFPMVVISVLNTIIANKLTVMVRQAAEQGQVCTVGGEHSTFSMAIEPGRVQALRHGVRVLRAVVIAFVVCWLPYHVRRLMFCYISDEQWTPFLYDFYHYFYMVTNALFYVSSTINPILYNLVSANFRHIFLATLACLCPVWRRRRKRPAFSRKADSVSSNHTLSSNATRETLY
# Chain of Protein Tat (P04608 whole entry): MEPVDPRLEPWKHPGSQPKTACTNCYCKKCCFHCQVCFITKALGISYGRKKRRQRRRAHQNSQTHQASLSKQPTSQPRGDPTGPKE
# Chain of E3 ubiquitin-protein ligase Mdm2 (Q00987 whole entry): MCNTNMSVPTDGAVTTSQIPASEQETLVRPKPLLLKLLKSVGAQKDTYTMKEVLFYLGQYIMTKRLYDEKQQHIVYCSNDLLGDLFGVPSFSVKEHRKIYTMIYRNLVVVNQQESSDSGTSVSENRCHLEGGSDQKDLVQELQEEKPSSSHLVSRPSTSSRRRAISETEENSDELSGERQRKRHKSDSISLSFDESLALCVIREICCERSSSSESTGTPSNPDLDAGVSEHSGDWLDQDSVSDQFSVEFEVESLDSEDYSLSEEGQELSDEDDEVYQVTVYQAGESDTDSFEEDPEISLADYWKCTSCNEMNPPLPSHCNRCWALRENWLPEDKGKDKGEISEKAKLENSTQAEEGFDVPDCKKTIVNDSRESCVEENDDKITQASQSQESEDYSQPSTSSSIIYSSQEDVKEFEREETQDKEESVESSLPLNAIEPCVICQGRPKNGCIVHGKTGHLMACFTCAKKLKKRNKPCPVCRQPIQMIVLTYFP
# Chain of DNA dC->dU-editing enzyme APOBEC-3A (P31941 whole entry): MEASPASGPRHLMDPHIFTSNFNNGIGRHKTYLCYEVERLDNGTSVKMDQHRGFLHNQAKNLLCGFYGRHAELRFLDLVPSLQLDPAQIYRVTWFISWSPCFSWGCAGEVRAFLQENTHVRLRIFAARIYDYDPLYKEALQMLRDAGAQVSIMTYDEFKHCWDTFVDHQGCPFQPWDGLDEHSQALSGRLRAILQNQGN
# Chain of Kallikrein-7 (P49862 whole entry): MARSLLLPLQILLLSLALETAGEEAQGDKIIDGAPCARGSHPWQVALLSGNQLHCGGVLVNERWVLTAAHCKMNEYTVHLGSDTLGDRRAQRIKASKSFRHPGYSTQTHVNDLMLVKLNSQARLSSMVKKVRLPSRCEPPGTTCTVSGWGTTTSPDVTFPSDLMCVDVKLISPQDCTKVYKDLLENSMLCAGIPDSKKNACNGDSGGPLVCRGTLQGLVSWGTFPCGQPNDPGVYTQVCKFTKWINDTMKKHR
# Chain of Polyadenylate-binding protein 1 (P11940 whole entry): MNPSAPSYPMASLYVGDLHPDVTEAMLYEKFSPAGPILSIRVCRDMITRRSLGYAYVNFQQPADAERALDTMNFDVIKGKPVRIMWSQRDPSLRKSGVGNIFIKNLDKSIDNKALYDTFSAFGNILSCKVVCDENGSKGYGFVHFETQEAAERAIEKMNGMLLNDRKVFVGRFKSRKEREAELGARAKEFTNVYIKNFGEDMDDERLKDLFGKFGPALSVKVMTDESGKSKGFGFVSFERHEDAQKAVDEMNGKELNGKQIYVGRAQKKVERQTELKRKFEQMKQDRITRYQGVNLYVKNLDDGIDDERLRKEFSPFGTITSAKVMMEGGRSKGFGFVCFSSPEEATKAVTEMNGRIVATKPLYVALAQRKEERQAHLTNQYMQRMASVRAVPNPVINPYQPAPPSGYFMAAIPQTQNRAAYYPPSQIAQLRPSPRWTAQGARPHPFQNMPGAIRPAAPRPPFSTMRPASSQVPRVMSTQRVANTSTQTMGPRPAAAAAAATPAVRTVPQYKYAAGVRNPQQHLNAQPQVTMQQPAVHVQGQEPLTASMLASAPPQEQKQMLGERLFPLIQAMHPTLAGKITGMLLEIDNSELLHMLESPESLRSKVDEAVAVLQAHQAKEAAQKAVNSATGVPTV
# Chain of Paired box protein Pax-8 (Q06710 whole entry): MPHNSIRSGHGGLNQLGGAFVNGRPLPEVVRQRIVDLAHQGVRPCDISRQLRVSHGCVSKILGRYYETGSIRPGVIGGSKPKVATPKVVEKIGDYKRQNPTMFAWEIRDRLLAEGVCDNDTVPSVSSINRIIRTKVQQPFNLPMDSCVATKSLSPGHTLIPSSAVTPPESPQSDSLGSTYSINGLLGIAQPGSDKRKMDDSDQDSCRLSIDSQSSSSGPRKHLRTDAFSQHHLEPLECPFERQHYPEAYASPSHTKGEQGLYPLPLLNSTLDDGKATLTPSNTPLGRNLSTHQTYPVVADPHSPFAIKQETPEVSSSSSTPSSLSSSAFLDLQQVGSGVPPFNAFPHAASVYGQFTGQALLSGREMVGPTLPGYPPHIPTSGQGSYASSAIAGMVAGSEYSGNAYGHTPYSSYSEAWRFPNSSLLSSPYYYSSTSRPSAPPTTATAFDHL
# Chain of DNA dC->dU-editing enzyme APOBEC-3G (Q9HC16 whole entry): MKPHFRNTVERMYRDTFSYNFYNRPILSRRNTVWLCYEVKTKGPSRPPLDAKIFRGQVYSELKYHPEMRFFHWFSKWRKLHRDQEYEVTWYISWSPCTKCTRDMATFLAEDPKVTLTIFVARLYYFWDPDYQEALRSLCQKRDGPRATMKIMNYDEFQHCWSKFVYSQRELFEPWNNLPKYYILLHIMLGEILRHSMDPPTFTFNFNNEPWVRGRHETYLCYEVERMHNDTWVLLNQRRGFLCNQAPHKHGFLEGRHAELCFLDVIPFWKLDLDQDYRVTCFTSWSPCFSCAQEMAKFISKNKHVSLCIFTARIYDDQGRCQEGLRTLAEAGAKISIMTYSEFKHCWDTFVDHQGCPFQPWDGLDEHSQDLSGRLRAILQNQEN
compound,measurement,setting,value
CC(Oc1ccccc1)C(=O)NNC(=O)c1ccccn1 (centres undefined),EC50,[1],66.5 µM (not active)
COc1ccc(CC(=O)OCn2nnc3ccccc3c2=O)cc1,CC50,[2],> 40 µM (active)
O=C(CCl)Nc1ccccc1Sc1ccccc1,IC50,[3],> 80 µM (inactive)
Cc1cnc(NC(=O)Nc2ccc(Cl)cc2)s1,IC50,[3],> 80 µM (inactive)
O=C1NCCCC2c3cc(O)c4ccccc4c3OC12N1CCCCC1 (centres undefined),IC50,Estrogen receptor beta [4],> 50 µM (not active)
same,IC50,Estrogen receptor beta [5],13.6 µM (active)
c1ccc2c(c1)ncn2CCOc1ccc2c(c1)CCC2,AC50,cells,36.7 µM (active)
CC1CCCN(CC(O)CN)C1 (centres undefined),IC50,[6],> 83.3 µM (inactive)
same,IC50,[7],> 109 µM (inactive)
COc1cccc(-c2nc3ccccc3s2)c1O,EC50,[8],> 67.6 µM (inactive)
same,IC50,[9],> 67.6 µM (inactive)
CCOC(=O)[C@H]1[C@H]2COc3cc(OC)ccc3[C@@H]2N2C(=O)c3ccc(C)cc3NC(=O)[C@@]12C,IC50,[6],> 83.3 µM (inactive)
same,IC50,[7],> 109 µM (inactive)
CCc1nc2oc3cc(OC)ccc3c(=O)c2c(=O)n1Cc1ccco1,IC50,Estrogen receptor beta [4],0.0586 µM (not active)
same,IC50,Estrogen receptor beta [5],30.7 µM (not active)
O=C(NCCCN1CCCC1=O)c1cc2nc(-c3ccco3)cc(C(F)(F)F)n2n1,EC50,Kallikrein-7,> 69.5 µM (inactive)
CCOc1ccc2nc3cc(N)ccc3c(N)c2c1 [ETHACRIDINE LACTATE],IC50,[10],> 10 µM (inactive)
same,IC50,[11],> 10 µM (inactive)
C[C@H](CO)N1C[C@H](C)[C@H](CN(C)C(=O)[C@H](Cc2ccccc2)N(C)C)OCc2ccccc2-c2c(n(C)c3ccccc23)C1=O,AC50,[12],12.6 µM (active)
same,AC50,Paired box protein Pax-8,16.4 µM (active)
same,AC50,[13],36.2 µM (active)
same,AC50,[14],45.4 µM (active)
CCOc1ccc(CCNC(=O)CN2C(=O)CCSc3ccccc32)cc1OCC,EC50,[15],> 120 µM (not active)
O=C(/C=C/c1ccc(Cl)c([N+](=O)[O-])c1)c1cccnc1,AC50,[16],1.31 µM (active)
same,EC50,[17],> 40 µM (inactive)
same,AC50,[18],56.4 µM (active)
same,AC50,[19],4.16 µM (active)
COc1ccc(C(=O)NC(=S)NNC(=O)c2cnccn2)cc1OC,AC50,INS1,1.03 µM (active)
same,IC50,[20],> 50 µM (not active)
Cc1c(C(=O)O/N=C(\N)c2ccccn2)cccc1[N+](=O)[O-],EC50,[8],> 67.6 µM (inactive)
same,IC50,[9],> 67.6 µM (inactive)
CCN(CC(=O)Nc1c(F)cccc1F)C(=O)c1cccc(-n2cccc2)c1,IC50,Protein Tat,> 100 µM (active)
same,IC50,[21],15.9 µM (active)
same,IC50,[22],34.8 µM (active)
Nc1cccc2c1C(=O)N(C(=O)/C=C/c1cccc(Br)c1)C2=O,IC50,[23],> 100 µM (active)
same,EC50,[24],7.82 µM (active)
Cc1ccc(S(=O)(=O)N(C)CC(O)Cn2c3ccccc3c3ccccc32)cc1 (centres undefined),CC50,[2],> 40 µM (active)
CCN1C(NCc2cc(OC)c(OC)c(OC)c2)=N[C@@H](c2ccccc2)[C@H](C(=O)OC)[C@H]1C,IC50,[25],11.9 µM (active)
same,IC50,[26],> 100 µM (inactive)
COc1ccc2c(c1)c1nnc(SC)nc1n2C,EC50,[15],> 120 µM (not active)
Cc1ccc(-c2nc(Nc3cccc(O)c3)c3ccccc3n2)cc1,EC50,[17],30.6 µM (inactive)
same,AC50,[19],5.05 µM (active)
CCn1c(SCC(=O)Nc2cc(C)on2)nnc1-c1cccnc1,IC50,Protein Tat,> 100 µM (active)
Cc1ccc([N+](=O)[O-])cc1/N=C/C1=C(O)c2ccccc2CC1,IC50,[20],> 50 µM (not active)
same,IC50,[27],> 50 µM (not active)
CCC(=O)N1CCc2cc(S(=O)(=O)NCCC(=O)NC3CCCc4ccccc43)ccc21 (centres undefined),IC50,[23],> 100 µM (active)
N#Cc1c(N2CCN(c3ccc(F)cc3)CC2)nc(N)c2c(N)nc3c(c12)CC(=O)N3C1CC1,IC50,[27],> 50 µM (not active)
CC(=O)c1ccc(NC(=O)CSCCO)cc1,EC50,[28],> 50 µM (not active)
O=C(NCC(=O)N(c1cccnc1)C(C(=O)NC1CCCC1)c1ccco1)c1cccs1 (centres undefined),EC50,[28],> 50 µM (not active)
